Our source for the inhibition and Activity values is ChEMBL document CHEMBL5352498, “Aza-Residue Modulation of Cyclic d,l-α-Peptide Nanotube Assembly with Enhanced Anti-Amyloidogenic Activity” (J Med Chem, 2023).

Structures are written as SMILES. Calls of active or inactive are those of the source. The rule behind the calls is not given here. Where a SMILES comes first, the peptide text is derived from it. [ ]: non-standard residue; d: D form. Nle = CCCC[C@H](N)C(=O)O Where only a bound is given, the exact number is not on record here.

Data set [1] has as its target Amyloid-beta precursor protein (Homo sapiens) (UniProt P05067). Briefly: Inhibition of amyloid beta 40 (unknown origin) aggregation assessed as reduction in fibril formation by measuring fluorescence intensity at 100 to 500 uM measured for 72 hrs by ThT flourescence assay. The note with it: dose 100-500 µM.
The target is the same in data set [2]. Briefly: Inhibition of amyloid beta 40 (unknown origin) aggregation assessed as reduction in fibril formation by measuring fluorescence intensity at compound:Abeta40 concentration ratio of 1:5 and measured for 72 hrs by ThT flourescence assay relative to control.
Data set [3] shares this target. Put plainly: Inhibition of amyloid beta 40 (unknown origin) aggregation assessed as reduction in fibril formation by measuring fluorescence intensity at compound:Abeta40 concentration ratio of 1:1 and measured for 72 hrs by ThT flourescence assay relative to control.
Data set [4] shares this target. Put plainly: Induction of amyloid beta 40 fibrils (unknown origin) disaggregation assessed as decrease in relative fluorescence intensity at 500 uM incubated for 24 hrs ThT flourescence assay relative to control. More on the design: scale not given: the % may be the effect or the level left.
For data set [5] the target is unchanged. Briefly: Inhibition of amyloid beta 42 (unknown origin) aggregation assessed as decrease in fibril formation by measuring fluorescence intensity and measured for 72 hrs by ThT flourescence assay.
Data set [6] has the same target. Briefly: Inhibition of amyloid beta 42 (unknown origin) aggregation assessed as reduction in fibril formation by measuring fluorescence intensity at compound:Abeta42 concentration ratio of 1:5 and measured for 72 hrs by ThT flourescence assay relative to control.
For data set [7], the system named is PC-12. Briefly: Neuroprotective activity against amyloid beta 40-induced cytotoxicity in rat PC12 cells assessed as increase in cell viability at compound:Abeta40 concentration ratio of 1:5 and incubated for 24 hrs by MTT assay relative to control. The data set is classed as functional.
Data set [8] relates to PC-12. Put plainly: Neuroprotective activity against amyloid beta 40-induced cytotoxicity in rat PC12 cells assessed as increase in cell viability at compound:Abeta40 concentration ratio of 1:1 and incubated for 24 hrs by MTT assay relative to control. The data set is classed as functional, cell-based.
For data set [9], the system named is PC-12. Briefly: Cytotoxicity against rat PC12 cells assessed as reduction in cell viability at 100 uM incubated for 24 hrs by MTT assay. The data set is classed as toxicity, cell-based. The note with it: pc-12, 24 h.
Data set [10] addresses Amyloid-beta precursor protein (Homo sapiens) (UniProt P05067). Briefly: Inhibition of amyloid beta 40 (unknown origin) self aggregation assessed as decrease in fibril formation at 500 uM incubated for 72 hrs by TEM analysis.
Data set [11] has the same target. Put plainly: Inhibition of amyloid beta 40 (unknown origin) aggregation assessed as assessed as decrease in oligomer formation by measuring decrease in oligomer-specific A11 antibody spots at 150 uM and measured for 48 hrs by Dot-Blot assay.
Data set [12] shares this target. Briefly: Inhibition of amyloid beta 40 (unknown origin) aggregation assessed as assessed as decrease in fibril formation by measuring decrease in fibril-specific OC antibody spots at 150 uM and measured for 48 hrs by Dot-Blot assay.
Data set [13] concerns Caenorhabditis elegans. Briefly: Neuroprotective activity in transgenic Caenorhabditis elegans GMC101 Alzheimer's disease model overexpressing human amyloid beta (1 to 42 residues) in body-wall muscle assessed as reduction in fibril-specific […] antibody spots incubated for 48 hrs by immunochemical dot-blot analysis. The data set is classed as functional, organism-based.

For data set [14], the system named is Caenorhabditis elegans. Briefly: Neuroprotective activity in transgenic Caenorhabditis elegans GMC101 Alzheimer's disease model overexpressing human amyloid beta (1 to 42 residues) in body-wall muscle assessed as delay in amyloid beta 42-induced paralysis at 5 to 50 uM incubated for 48 hrs. The data set is classed as functional, organism-based. The note with it: dose 5-50 µM.

Data set [15] deals with Caenorhabditis elegans. Briefly: Neuroprotective activity in transgenic Caenorhabditis elegans GMC101 Alzheimer's disease model expressing human amyloid beta (1 to 42 residues) in body-wall muscle assessed as increase in fraction of unparalyzed worms at 5 uM incubated for 48 hrs (Rvb= 56%). The data set is classed as functional.
Data set [16] has as its system Caenorhabditis elegans. Briefly: Neuroprotective activity against wild type Caenorhabditis elegans CL2122 assessed as delay in amyloid beta 42-induced paralysis at 50 uM incubated for 48 hrs. The data set is classed as functional, organism-based.
Data set [17] relates to Caenorhabditis elegans. Briefly: Neuroprotective activity against transgenic Caenorhabditis elegans CL2355 Alzheimer's disease model expressing human amyloid beta (1 to 42 residues) in neuron assessed as increase in motility at 5 to 50 uM incubated for 36 hrs at 16 degreeC and 36 hrs at 23 degreeC. The data set is classed as functional, organism-based. The note with it: dose 5-50 µM, time 72.0 hrs.

Data set [18] relates to Caenorhabditis elegans. Briefly: Neuroprotective activity against transgenic Caenorhabditis elegans CL2355 Alzheimer's disease model expressing human amyloid beta (1 to 42 residues) in neuron assessed as increase in motility by measuring bending frequency at 5 uM incubated for 36 hrs at 16 degreeC and 36 hrs at 23 degreeC (reference value: 74). The note with it: time 72 hrs. The data set is classed as functional.

Data set [19] concerns Caenorhabditis elegans. Briefly: Neuroprotective activity against transgenic Caenorhabditis elegans CL2355 Alzheimer's disease model expressing human amyloid beta (1 to 42 residues) in neuron assessed as neutralization of damaging effect of amyloid beta aggregation by measuring increase in chemotaxis index at 50 uM incubated for 36 hrs at 16 degreeC and 36 hrs at 23 degreeC by Chemotaxis Assay. The data set is classed as functional, organism-based. The note with it: time 72.0 hrs.

For data set [20], the system named is Caenorhabditis elegans. Briefly: Neuroprotective activity in transgenic Caenorhabditis elegans GMC101 Alzheimer's disease model overexpressing human amyloid beta (1 to 42 residues) in body-wall muscle assessed as reduction in oligomeric-specific A11 antibody spots incubated for 48 hrs by immunochemical dot-blot analysis. The data set is classed as functional, organism-based.

The test system of data set [21] is Caenorhabditis elegans. Put plainly: Neuroprotective activity in transgenic Caenorhabditis elegans GMC101 Alzheimer's disease model overexpressing human amyloid beta (1 to 42 residues) in body-wall muscle assessed as reduction in amyloid beta fibrils incubated for 48 hrs by Western blot analysis. The data set is classed as functional, organism-based.
Data set [22] relates to Caenorhabditis elegans. Put plainly: Neuroprotective activity in transgenic Caenorhabditis elegans GMC101 Alzheimer's disease model overexpressing human amyloid beta (1 to 42 residues) in body-wall muscle assessed as reduction in amyloid beta oligomers incubated for 48 hrs by Western blot analysis. The data set is classed as functional, organism-based.
Data set [23] concerns the target Amyloid-beta precursor protein (Homo sapiens) (UniProt P05067). Briefly: Inhibition of amyloid beta 40 (unknown origin) aggregation assessed as decrease in […] conformation of protein secondary structure at 50 uM incubated for 24 hrs by Circular dichroism spectroscopy analysis.
Data set [24] concerns Caenorhabditis elegans. Put plainly: Neuroprotective activity against wild type Caenorhabditis elegans CL2122 assessed as motility changes by measuring worms bending frequency at 50 uM incubated for 36 hrs at 16 degreeC and 36 hrs at 23 degreeC. The data set is classed as functional, organism-based. The note with it: time 72.0 hrs.
For data set [25], the target named is Amyloid-beta precursor protein (Homo sapiens) (UniProt P05067). Briefly: Inhibition of amyloid beta 40 (unknown origin) self aggregation assessed as change in fibril morphology at 500 uM incubated for 72 hrs by TEM analysis.
Chain of Amyloid-beta precursor protein (Homo sapiens) (P05067 whole entry): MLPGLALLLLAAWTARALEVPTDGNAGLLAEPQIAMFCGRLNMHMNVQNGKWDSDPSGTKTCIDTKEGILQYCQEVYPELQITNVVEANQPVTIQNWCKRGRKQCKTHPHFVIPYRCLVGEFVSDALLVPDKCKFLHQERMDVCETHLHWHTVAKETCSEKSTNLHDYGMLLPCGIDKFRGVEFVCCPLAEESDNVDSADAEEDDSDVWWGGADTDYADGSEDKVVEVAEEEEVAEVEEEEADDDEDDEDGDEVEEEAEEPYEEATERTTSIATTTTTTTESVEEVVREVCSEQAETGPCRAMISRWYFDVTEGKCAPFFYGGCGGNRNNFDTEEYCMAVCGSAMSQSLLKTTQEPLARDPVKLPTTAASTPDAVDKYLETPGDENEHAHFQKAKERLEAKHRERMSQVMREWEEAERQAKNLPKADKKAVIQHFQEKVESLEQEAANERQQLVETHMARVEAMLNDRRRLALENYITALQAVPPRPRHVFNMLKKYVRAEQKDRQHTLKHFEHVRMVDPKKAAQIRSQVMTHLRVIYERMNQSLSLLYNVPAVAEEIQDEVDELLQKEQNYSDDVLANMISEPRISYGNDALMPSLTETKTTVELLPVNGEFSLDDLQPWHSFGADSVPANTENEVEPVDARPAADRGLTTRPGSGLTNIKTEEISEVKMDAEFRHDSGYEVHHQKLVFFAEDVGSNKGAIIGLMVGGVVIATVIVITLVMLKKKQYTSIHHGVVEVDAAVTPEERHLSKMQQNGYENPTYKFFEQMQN
The test system of data set [26] is Caenorhabditis elegans. Briefly: Neuroprotective activity against transgenic Caenorhabditis elegans GMC101 Alzheimer's disease model expressing human amyloid beta 42 assessed as increase in fractional of unparalyzed worms at 5 uM (Rvb=51%). The data set is classed as functional.
The subject of data set [27] is Caenorhabditis elegans. Put plainly: Neuroprotective activity against transgenic Caenorhabditis elegans CL2355 Alzheimer's disease model expressing human amyloid beta (1 to 42 residues) in neuron assessed as increase in motility by measuring bending frequency at 5 uM incubated for 36 hrs at 16 degreeC and 36 hrs at 23 degreeC (reference value: 72). The note with it: time 72 hrs. The data set is classed as functional.

The subject of data set [28] is Caenorhabditis elegans. Put plainly: Neuroprotective activity against transgenic Caenorhabditis elegans CL2355 Alzheimer's disease model expressing human amyloid beta (1 to 42 residues) in neuron assessed as increase in chemotaxis index at 50 uM incubated for 36 hrs at 16 degreeC and 36 hrs at 23 degreeC by Chemotaxis Assay (0.22. The data set is classed as functional. The note with it: time 72 hrs.

For the compound `CCCCN1NC(=O)[C@@H](CC(C)C)NC(=O)[C@H](CCCCN)NC(=O)[C@@H](CO)NC(=O)[C@H](Cc2c[nH]cn2)NC(=O)[C@@H](Cc2c[nH]c3ccccc23)NC1=O` (racemic), the inhibition entry in data set [1], in data set [5], in data set [10], in [11] and in [12] was “Active” in each case. For the same compound, the inhibition is 88% in [2], 93% in data set [3] and 87.6% in data set [6]. Further, the Activity is under 50% in data set [4]; over 90% in the data set with PC-12 [7]; “Non-Toxic” in the data set with PC-12 [9]; “Dose-Dependent Effect” in the data set on Caenorhabditis elegans [14]; 76% in the data set on Caenorhabditis elegans [15]; “Dose-Dependent Effect” in the data set with Caenorhabditis elegans [17]. Further, in the data set with Caenorhabditis elegans [18], the Activity is given as 79. Moreover, the result in the data set with PC-12 [8], in the data set on Caenorhabditis elegans [13], in the data set on Caenorhabditis elegans [19], in the data set with Caenorhabditis elegans [20], with Caenorhabditis elegans [21] and in the data set on Caenorhabditis elegans [22] was Active. For the same compound, the outcome with Caenorhabditis elegans [16] and with Caenorhabditis elegans [24] was inactive. Besides, the inhibition result in data set [23] is “inactive”.
For the compound `CCCC[C@@H]1NC(=O)[C@@H](CC(C)C)NC(=O)[C@H](CCCCN)NC(=O)[C@@H](CO)NC(=O)N(Cc2c[nH]nn2)NC(=O)[C@@H](Cc2c[nH]c3ccccc23)NC1=O` (racemic), the inhibition result in data set [1], in data set [2], in [5], in data set [11] and in data set [12] was “Active” in each case. Besides, the Activity is under 50% in [4], over 90% in the data set with PC-12 [7] and “Non-Toxic” in the data set on PC-12 [9]. The inhibition in data set [23] came out at 60%.
As for `CCCC[C@@H]1NC(=O)[C@@H](CC(C)C)NC(=O)N(CCCCN)NC(=O)[C@@H](CO)NC(=O)[C@H](Cc2c[nH]cn2)NC(=O)[C@@H](Cc2c[nH]c3ccccc23)NC1=O` (racemic), the inhibition entry in data set [1], in data set [5], in [25], in data set [11] and in data set [23] was “Active” throughout. Further, the inhibition result in data set [2] and in [3] was “inactive” each time. In addition, the Activity is under 50% in data set [4], over 90% in the data set on PC-12 [7] and “Non-Toxic” in the data set with PC-12 [9]. Further, the outcome in the data set with PC-12 [8] was Active.
`CCCC[C@@H]1NC(=O)N(CC(C)C)NC(=O)[C@H](CCCCN)NC(=O)[C@@H](CO)NC(=O)[C@H](Cc2c[nH]cn2)NC(=O)[C@@H](Cc2c[nH]c3ccccc23)NC1=O` (racemic): the inhibition result in data set [1] and in data set [23] was “Active” throughout. The inhibition result in data set [2], in data set [3], in data set [11] and in data set [12] was “inactive” each time. Moreover, the Activity was 72% in data set [4] and “Toxic” in the data set on PC-12 [9].
Take `CCCC[C@@H]1NC(=O)[C@@H](CC(C)C)NC(=O)[C@H](CCCCN)NC(=O)[C@@H](CO)NC(=O)[C@H](Cc2c[nH]cn2)NC(=O)N(Cc2cc3ccccc3[nH]2)NC1=O`: the inhibition entry in [1] and in data set [2] was “Active” throughout. The Activity in data set [4] is under 50%; in the data set on PC-12 [9], “Toxic”. Moreover, the inhibition result in data set [5], in [11], in data set [12] and in data set [23] was “inactive” each time.
For `CCCC[C@@H]1NC(=O)[C@@H](CC(C)C)NC(=O)[C@H](CCCCN)NC(=O)[C@@H](CO)NC(=O)[C@H](Cc2c[nH]cn2)NC(=O)[C@@H](Cc2c[nH]c3ccccc23)NC1=O` (cyclo(K[dL][Nle][dW]H[dS])), the inhibition was found to be 89% in [2] and 50% in data set [3]. Besides, the Activity was 33% in [4]; 88% with PC-12 [7]; “Non-Toxic” in the data set on PC-12 [9]; 86% in the data set with Caenorhabditis elegans [26]; 82 in the data set with Caenorhabditis elegans [27]; 0.32 with Caenorhabditis elegans [28].
Regarding `CCCC[C@@H]1NC(=O)[C@@H](CC(C)C)NC(=O)[C@H](CCCCN)NC(=O)N(CCO)NC(=O)[C@H](Cc2c[nH]cn2)NC(=O)[C@@H](Cc2c[nH]c3ccccc23)NC1=O` (racemic), the inhibition result in data set [1], in [2], in data set [5], in data set [25] and in data set [11] was “Active” each time. In addition, the Activity in data set [4] was under 50%; with PC-12 [7] it was over 90%; with PC-12 [9], “Non-Toxic”; in the data set on Caenorhabditis elegans [14], “Dose-Dependent Effect”; with Caenorhabditis elegans [15], 60%; with Caenorhabditis elegans [17], “Dose-Dependent Effect”. Also, the Activity in the data set on Caenorhabditis elegans [18] is on record as 79. Further, the result in the data set with PC-12 [8], with Caenorhabditis elegans [13], in the data set on Caenorhabditis elegans [19], in the data set on Caenorhabditis elegans [20], in the data set on Caenorhabditis elegans [21] and in the data set on Caenorhabditis elegans [22] was Active. The outcome with Caenorhabditis elegans [16] and in the data set with Caenorhabditis elegans [24] was inactive. The inhibition in data set [23] was 60%.
